Measurements reported in paper PMC9652372, “Glycolytic flux control by drugging phosphoglycolate phosphatase” (Nature Communications, 2022).
Residue numbers refer to the chain shown, from its start.

How the values were obtained:
PGP^172FDPH>YDEQ = target: T1, PGP^172FDPH>YDEQ (Mus musculus, UniProt Q8CHP8, F172Y/H175Q/P174E); conditions: read-out: enzyme activity in presence of CP1 relative to DMSO control (1), mPGP-172FDPH>172YDEQ
T1 sequence (Q8CHP8 1-321 F172Y/P174E/H175Q): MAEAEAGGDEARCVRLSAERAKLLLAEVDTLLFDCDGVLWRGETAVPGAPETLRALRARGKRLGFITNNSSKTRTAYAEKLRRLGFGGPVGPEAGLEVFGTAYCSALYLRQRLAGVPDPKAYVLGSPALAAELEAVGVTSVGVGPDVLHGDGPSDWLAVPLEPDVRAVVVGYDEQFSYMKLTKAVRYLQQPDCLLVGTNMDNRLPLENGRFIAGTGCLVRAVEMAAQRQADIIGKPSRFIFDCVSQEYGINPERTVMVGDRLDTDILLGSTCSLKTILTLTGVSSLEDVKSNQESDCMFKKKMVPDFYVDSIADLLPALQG

PGP^S71R = target: T2, PGP^S71R (Mus musculus, UniProt Q8CHP8, S71R); conditions: read-out: enzyme activity in presence of CP1 relative to DMSO control (1), mPGP-S71R, Exp #1-#3
T2 sequence (Q8CHP8 1-321 S71R): T1 sequence (Q8CHP8 1-321 F172Y/P174E/H175Q) with S71R, Y172F, E174P, Q175H

NANP/HDHD4 = target: T3, NANP/HDHD4 (Mus musculus, UniProt Q9CPT3); assay: In vitro phosphatase activity assay, NANP/HDHD4 (6-phosphogluconate); type: biochemical, murine; conditions: NANP activity on 6-phosphogluconate
T3 construct: made in house; host or cells: Escherichia coli BL21 (DE3), pETM11 (cDNA from Origene #MR203153)
T3 sequence (Q9CPT3 1-248): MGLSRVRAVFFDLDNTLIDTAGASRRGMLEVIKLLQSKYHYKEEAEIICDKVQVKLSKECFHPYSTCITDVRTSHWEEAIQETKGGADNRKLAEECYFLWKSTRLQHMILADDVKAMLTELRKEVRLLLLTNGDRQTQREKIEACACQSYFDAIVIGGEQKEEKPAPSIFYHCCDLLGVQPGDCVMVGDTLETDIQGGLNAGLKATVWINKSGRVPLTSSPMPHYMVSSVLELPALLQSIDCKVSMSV
Source text: The following phosphatase constructs (in pCMV6) were purchased from Origene: murine LHPP (NM_029609; catalog #MC211738), murine LPIN1, transcript variant 2 (NM_015763, #MC204460), murine MDP1 (NM_023397, #MR201315), murine […]_026086, #MR203153), murine NT5C (NM_015807, #MR202028), human NT5M (NM_020201, #RC207737), murine PNKP (NM_021549, #MR207938), and murine PSPH (NM_133900, #MR202626). Purified human NT5C1A (NM_032526, #TP324617) and purified human PHOSPHO1 (NM_178500, #TP314434) were from Origene. The murine PHOSPHO2 construct (in pFLCI) was from Source BioScience (clone ID: I420023L04). Calf intestinal alkaline phosphatase (CIP) was from NEB. Purified, recombinant human calcineurin (PP2B) and human PTP1B (residues 1-322) were from Millipore (#207005 or #539736, respectively). […] The 3'-P-oligonucleotide 5'-[NT]^3-]-3' was used as a PNKP substrate. […] Data were analyzed with GraphPad Prism 7.04. […] (c) Upper panel, purity of the tested, recombinant phosphatases (10 μg of protein/lane). A Coomassie Blue-stained gel is shown. Tested enzymes that are not included in this panel were obtained commercially. Lower panel , Western blots showing the overexpression of the myc-tagged cytosolic 5', 3'-nucleotidase NT5C and mitochondrial 5', 3'-nucleotidase NT5M in HEK293 cells (uncropped blots in Source Data). […] Error bars not shown are hidden by the symbols. […]

IC50 (NANP/HDHD4) [nM] | Compound | remaining activity at 15.85 µM (PGP^172FDPH>YDEQ; CP1 log[M] -4.80, Exp #1-#3) [%] | remaining activity at 7.943 µM (PGP^172FDPH>YDEQ; CP1 log[M] -5.10, Exp #1-#3) [%] | remaining activity at 3.981 µM (PGP^172FDPH>YDEQ; CP1 log[M] -5.40, Exp #1-#3) [%] | remaining activity at 1.995 µM (PGP^172FDPH>YDEQ; CP1 log[M] -5.70, Exp #1-#3) [%] | remaining activity at 1 µM (PGP^172FDPH>YDEQ; CP1 log[M] -6.00, Exp #2-#3) [%] | remaining activity at 0.5012 µM (PGP^172FDPH>YDEQ; CP1 log[M] -6.30, Exp #1-#3) [%] | remaining activity at 0.2512 µM (PGP^172FDPH>YDEQ; CP1 log[M] -6.60, Exp #1-#3) [%] | remaining activity at 0.1259 µM (PGP^172FDPH>YDEQ; CP1 log[M] -6.90, Exp #1-#3) [%] | remaining activity at 39.81 µM (PGP^S71R; CP1 log[M] -4.40) [%] | remaining activity at 19.95 µM (PGP^S71R; CP1 log[M] -4.70) [%] | remaining activity at 10 µM (PGP^S71R; CP1 log[M] -5.00) [%] | remaining activity at 5.012 µM (PGP^S71R; CP1 log[M] -5.30) [%] | remaining activity at 2.512 µM (PGP^S71R; CP1 log[M] -5.60) [%] | remaining activity at 0.631 µM (PGP^S71R; CP1 log[M] -6.20) [%] | remaining activity at […] (PGP^S71R; CP1 log[M] -6.51) [%] | remaining activity at 0.1549 µM (PGP^S71R; CP1 log[M] -6.81) [%]
– | O=C(Nc1ccccc1C(=O)O)c1ccc(Oc2ccc(C(=O)Nc3ccccc3C(=O)O)cc2)cc1 [CP1] | 82 | 88 | 86 | 98 | 97 | 88 | 92 | 86 | 25 | 38 | 50 | 68 | 81 | 95 | 100 | 92
~1000 | COc1ccc(C(=O)Nc2ccc(Cc3ccc(NC(=O)c4ccc(OC)c(OC)c4)c(C(=O)O)c3)cc2C(=O)O)cc1OC [CP2] | – | – | – | – | – | – | – | – | – | – | – | – | – | – | – | –
